We go through 27 compounds from patent US20220056043A1, “NITROGEN-CONTAINING FUSED CYCLIC COMPOUND, PREPARATION METHOD THEREFOR AND USE THEREOF” (SICHUAN KELUN-BIOTECH BIOPHARMACEUTICAL CO., LTD., priority 2019, published 2022).

The target of experiment [1] is T1, hTLR8 (Homo sapiens, UniProt Q9NR97).
T1 construct: host or cells: HEK-Blue hTLR8 cells
T1 sequence (Q9NR97 27-1041): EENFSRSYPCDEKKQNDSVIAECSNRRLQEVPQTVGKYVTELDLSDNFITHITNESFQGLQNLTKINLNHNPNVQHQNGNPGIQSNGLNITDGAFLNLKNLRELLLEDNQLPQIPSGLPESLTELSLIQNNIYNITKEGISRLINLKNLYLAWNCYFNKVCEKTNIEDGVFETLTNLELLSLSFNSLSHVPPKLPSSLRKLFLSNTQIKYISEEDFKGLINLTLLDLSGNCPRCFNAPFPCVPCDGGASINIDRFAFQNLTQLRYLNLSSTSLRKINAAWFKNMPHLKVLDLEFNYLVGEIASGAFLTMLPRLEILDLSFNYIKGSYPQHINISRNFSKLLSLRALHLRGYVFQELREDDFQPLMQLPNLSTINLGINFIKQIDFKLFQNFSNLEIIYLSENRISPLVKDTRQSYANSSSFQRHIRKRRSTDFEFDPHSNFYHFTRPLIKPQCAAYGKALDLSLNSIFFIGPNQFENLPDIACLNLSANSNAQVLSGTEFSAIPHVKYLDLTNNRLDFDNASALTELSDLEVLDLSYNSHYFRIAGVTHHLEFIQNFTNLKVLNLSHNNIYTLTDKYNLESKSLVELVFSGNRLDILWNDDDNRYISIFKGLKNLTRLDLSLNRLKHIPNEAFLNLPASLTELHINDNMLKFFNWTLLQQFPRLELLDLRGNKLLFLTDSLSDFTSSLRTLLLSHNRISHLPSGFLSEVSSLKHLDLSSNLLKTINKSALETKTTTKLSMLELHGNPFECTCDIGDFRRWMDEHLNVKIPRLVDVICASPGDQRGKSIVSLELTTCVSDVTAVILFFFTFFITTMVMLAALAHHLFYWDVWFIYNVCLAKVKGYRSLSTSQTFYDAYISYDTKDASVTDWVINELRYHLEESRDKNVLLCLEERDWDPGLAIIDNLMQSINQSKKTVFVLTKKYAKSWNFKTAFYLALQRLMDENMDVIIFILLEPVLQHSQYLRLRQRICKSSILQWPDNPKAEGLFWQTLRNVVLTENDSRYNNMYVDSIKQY
Kind of experiment: Agonistic effect on hTLR8, HEK-Blue hTLR8 cells, alkaline phosphatase secretion. The experiment is classed as cell-based. The following applies: 16 hours. In outline: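 HEK-Blue hTLR8 reporter cells were treated with compound (diluted from 10 mM DMSO stock) for 16 h at 37 °C in DMEM/10% FBS. Secreted alkaline phosphatase in supernatant was detected with QUANTI-Blue after 3 h at 37 °C, read at OD620. EC50 came from a four-parameter variable-slope fit.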

For experiment [2], the system named is THP1-defNLRP3 cells. As to the kind of experiment: Agonistic effect on the expression of IL-1β in NLRP3 deficient THP1 cells (THP1-defNLRP3) after PMA-induced differentiation (HTRF). The experiment is classed as cell-based, human. The following applies: IL-1β level, PMA-differentiated NLRP3 deficient THP1 cells, 6 hours, highest test concentration 30 μM, read-out: hNLRP3 EC50 (μM) (THP-1defNLRP3). Summed up:
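PMA-differentiated (1 μM, 24 h) NLRP3-deficient THP1 macrophages, 1×10^5 cells/well in RPMI 1640 with 2% heat-inactivated FBS, treated with compound for 6 h at 37 °C. Supernatant IL-1β measured by HTRF. EC50 from four-parameter variable-slope fit.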

The structures appear in SMILES notation. Where two headings read alike, the source gives them in different places.

In the case of `CC(C)(O)CNc1cc(N)nc2cc(-c3ccn[nH]3)sc12` [Compound 28, (1-(5-amino-2-(1H-pyrazol-5-yl)thieno[3,2-b]pyridin-7-yl)amino)-2-methyl-2-propanol], the concentration for a half-maximal effect (EC50) in experiment [1] is over 100 µM; in experiment [2] (Homo sapiens, THP-1), over 30 µM.
For `C[C@@H](O)CNc1cc(N)nc2cc(-c3ccn[nH]3)sc12` [Compound 29] the same measures were over 100 µM and over 30 µM.
For `Nc1cc(N[C@@H]2CC[C@@H](O)C2)c2sc(-c3ccn[nH]3)cc2n1` [Compound 30, (1R,3R)-3-((5-amino-2-(1H-pyrazol-5-yl)thieno[3,2-b]pyridin-7-yl)amino)cyclopentanol], the values for the EC50 in experiment [1] and in experiment [2] were over 100 µM and over 30 µM, respectively.
`Nc1cc(NC(CCO)c2ccccc2)c2sc(-c3ccn[nH]3)cc2n1` (stereo not drawn) [Compound 123, 3-((5-amino-2-(1H-pyrazol-5-yl)thieno[3,2-b]pyridin-7-yl)amino)-3-phenyl-1-propanol]: the EC50 in experiment [1] is over 100 µM; in experiment [2] (Homo sapiens, THP-1), over 30 µM.
Consider `C[C@@H]1CN(CCNc2cc(N)nc3cc(-c4ccn[nH]4)sc23)C[C@@H](C)O1` [Compound 124, N^7-(2-((2R,6R)-2,6-dimethylmorpholino)ethyl)-2-(1H-pyrazol-5-yl)thieno[3,2-b]pyridine-5,7-diamine], for which the half-maximal effective concentration (EC50) in experiment [1] was over 100 µM; in experiment [2] (Homo sapiens, THP-1), over 30 µM.
Taken in the same sequence, the figures for `C[C@@H](CCO)Nc1cc(N)nc2cc(-c3ccn[nH]3)sc12` [Compound 125, (S)-3-((5-amino-2-(1H-pyrazol-5-yl)thieno[3,2-b]pyridin-7-yl)amino)butanol] were over 100 µM and over 30 µM.
For `Nc1cc(NCC2CCC2)c2sc(-c3ccn[nH]3)cc2n1` [Compound 126, N^7-(cyclobutylmethyl)-2-(1H-pyrazol-5-yl)thieno[3,2-b]pyridine-5,7-diamine] the same measures were over 100 µM and over 30 µM.
For `CN(CCCO)c1cc(N)nc2cc(-c3ccn[nH]3)sc12` [Compound 127, 3-((5-amino-2-(1H-pyrazol-5-yl)thieno[3,2-b]pyridin-7-yl)(methyl)amino)-1-propanol] the same measures were over 100 µM and over 30 µM.
As to `C[C@H]1CC[C@H](Nc2cc(N)nc3cc(-c4ccn[nH]4)sc23)CC1` [Compound 128, N^7-((1R,4R)-4-methylcyclohexyl)-2-(1H-pyrazol-5-yl)thieno[3,2-b]pyridine-5,7-diamine], the EC50 in experiment [1] was over 100 µM; in experiment [2] (Homo sapiens, THP-1), over 30 µM.
Taken in the same sequence, the figures for `C[C@]1(O)C[C@@H](Nc2cc(N)nc3cc(-c4ccn[nH]4)sc23)C1` [Compound 129, (1s,3s)-3-((5-amino-2-(1H-pyrazol-5-yl)thieno[3,2-b]pyridin-7-yl)amino)-1-methylcyclobutanol] were over 100 µM and over 30 µM.
Taken in the same sequence, the figures for `C[C@H](Nc1cc(N)nc2cc(-c3ccn[nH]3)sc12)c1cccc(C(F)(F)F)c1` [Compound 131, (S)-2-(1H-pyrazol-5-yl)-N^7-(1-(3-(trifluoromethyl)phenyl)ethyl)thieno[3,2-b]pyridine-5,7-diamine] were over 100 µM and over 30 µM.
As to `CC[C@@H](CO)Nc1cc(N)nc2cc(-c3ccn[nH]3)sc12` [Compound 132, (S)-2-((5-amino-2-(1H-pyrazol-5-yl)thieno[3,2-b]pyridin-7-yl)amino)-1-butanol], the EC50 in experiment [1] is over 100 µM; in experiment [2] (Homo sapiens, THP-1), over 30 µM.
Taken in the same sequence, the figures for `COC[C@@H](C)Nc1cc(N)nc2cc(-c3ccn[nH]3)sc12` [Compound 133, (R)—N^7-(1-methoxyprop-2-yl)-2-(1H-pyrazol-5-yl)thieno[3,2-b]pyridine-5,7-diamine] were over 100 µM and over 30 µM.
Taken in the same sequence, the figures for `Cc1cccnc1CNc1cc(N)nc2cc(-c3ccn[nH]3)sc12` [Compound 134, N^7-((3-methylpyridin-2-yl)methyl)-2-(1H-pyrazol-5-yl)thieno[3,2-b]pyridine-5,7-diamine] were over 100 µM and over 30 µM.
Taken in the same sequence, the figures for `Nc1cc(NCCN2CCCC2=O)c2sc(-c3ccn[nH]3)cc2n1` [Compound 135, 1-(2-((5-amino-2-(1H-pyrazol-5-yl)thieno[3,2-b]pyridin-7-yl)amino)ethyl)pyrrolidin-2-one] were over 100 µM and over 30 µM.
Consider `Nc1cc(NCC(CO)CO)c2sc(-c3ccn[nH]3)cc2n1` [Compound 136], for which the EC50 in experiment [1] was over 100 µM; in experiment [2] (Homo sapiens, THP-1), over 30 µM.
Taken in the same sequence, the figures for `CNC(=O)CNc1cc(N)nc2cc(-c3ccn[nH]3)sc12` [Compound 137, 2-((5-amino-2-(1H-pyrazol-5-yl)thieno[3,2-b]pyridin-7-yl)amino)-N-methylacetamide] were over 100 µM and over 30 µM.
Taken in the same sequence, the figures for `Nc1cc(NCC(=O)NC2CC2)c2sc(-c3ccn[nH]3)cc2n1` [Compound 138, 2-((5-amino-2-(1H-pyrazol-5-yl)thieno[3,2-b]pyridin-7-yl)amino)-N-cyclopropylacetamide] were over 100 µM and over 30 µM.
`CN(CCO)c1cc(N)nc2cc(-c3ccn[nH]3)sc12` [Compound 139, 2-((5-amino-2-(1H-pyrazol-5-yl)thieno[3,2-b]pyridin-7-yl)(methyl)amino)ethanol]: the EC50 in experiment [1] is over 100 µM; in experiment [2] (Homo sapiens, THP-1), over 30 µM.
Taken in the same sequence, the figures for `CCN(CCNc1cc(N)nc2cc(-c3ccn[nH]3)sc12)C(=O)Cc1cccc(C)c1` [Compound 140, N-(2-((5-amino-2-(1H-pyrazol-5-yl)thieno[3,2-b]pyridin-7-yl)amino)ethyl)-N-ethyl-2-(m-tolyl)acetamide] were over 100 µM and over 30 µM.
For `CC(C)CNc1cc(N)nc2cc(-c3ccn[nH]3)sc12` [Compound 141, N^7-isobutyl-2-(1H-pyrazol-5-yl)thieno[3,2-b]pyridin-5,7-diamine] the same measures were over 100 µM and over 30 µM.
Taken in the same sequence, the figures for `Nc1cc(N[C@H]2[C@@H]3CNC[C@@H]32)c2sc(-c3ccn[nH]3)cc2n1` [Compound 142, N^7-((1R,5S,6S)-3-azabicyclo[3.1.0]hex-6-yl)-2-(1H-pyrazol-5-yl)thieno[3,2-b]pyridin-5,7-diamine] were over 100 µM and over 30 µM.
With `Nc1cc(NC2CCC(F)(F)CC2)c2sc(-c3ccn[nH]3)cc2n1` [Compound 143, N^7-(4,4-difluorocyclohexyl)-2-(1H-pyrazol-5-yl)thieno[3,2-b]pyridin-5,7-diamine], the EC50 was over 100 µM in experiment [1] and over 30 µM in experiment [2] (Homo sapiens, THP-1).
For `CC(C)C[C@H](CO)Nc1cc(N)nc2cc(-c3ccn[nH]3)sc12` [Compound 144, (R)-2-((5-amino-2-(1H-pyrazol-5-yl)thieno[3,2-b]pyridin-7-yl)amino)-4-methyl-1-pentanol] the same measures were over 100 µM and over 30 µM.
As for `CCC(=O)N(CC)CCNc1cc(N)nc2cc(-c3ccn[nH]3)sc12` [Compound 145, N-(2-((5-amino-2-(1H-pyrazol-5-yl)thieno[3,2-b]pyridin-7-yl)amino)ethyl)-N-ethylpropionamide], the EC50 in experiment [1] is over 100 µM; in experiment [2] (Homo sapiens, THP-1), over 30 µM.
Taken in the same sequence, the figures for `CCN(CCNc1cc(N)nc2cc(-c3ccn[nH]3)sc12)C(=O)C1CC1` [Compound 146, N-(2-((5-amino-2-(1H-pyrazol-5-yl)thieno[3,2-b]pyridin-7-yl)amino)ethyl)-N-ethylcyclopropyl formamide] were over 100 µM and over 30 µM.
For `Nc1cc(N[C@H]2CC[C@H](O)CC2)c2sc(-c3ccn[nH]3)cc2n1` [Compound 147, (1R,4R)-4-((5-amino-2-(1H-pyrazol-5-yl)thieno[3,2-b]pyridin-7-yl)amino)cyclohexanol] the same measures were over 100 µM and over 30 µM.

Broadly, the EC50 is the concentration that produces a half-maximal response.
